Reference: patent publication US20200261440A1, “ZINC IONOPHORES AND USES THEREOF” (THE UNIVERSITY OF QUEENSLAND, priority 2017, published 2020)
Marks after values point to notes of the source that are not given here.

Columns and labels:
A. baumannii strain 42-A = test: MIC by broth microdilution (CLSI); type: cell-based, Acinetobacter baumannii; conditions: Untreated
Protocol: (§1) They were obtained from Jan Bell, Australian Centre of Microbial Resistance Ecology (ACARE), University of Adelaide, Australia.
(§2) (2017)]. […] MIC assays were carried out in biological triplicates.

[1] = system: Methicillin-resistant Staphylococcus aureus (MRSA) strain USA300; test: MIC by broth microdilution (CLSI)
[2] = system: GAS strain HKU16 (Streptococcus pyogenes strain HKU16); test: microbe, parasite or virus in culture; type: cell-based
Protocol: (§3) J. Path. Bact. […] Proc. Soc.
(§4) MIC assays were carried out in biological triplicates.
(§5) M100 Performance Standards for Antimicrobial Susceptibility Testing, 27th Edition.

[3] = system: Klebsiella pneumoniae strain MS6771; test: MIC by broth microdilution (CLSI); type: cell-based
[4] = system: MCR-1 E. coli strain MS8345; test: MIC by broth microdilution (CLSI); type: cell-based, Escherichia coli; conditions: for antibiotic sensitivity of resistant strain: MCR1-positive E. coli MS8345; for MIC: MCR-1 E. coli
Protocol: as §3
J Infect Dis. 1995 171:890-6). E. coli strain MS8345 is a MCR-1 resistant clinical isolate supplied by Prof. D. L. Paterson, University of Queensland Centre for Clinical Research.
as §2

[5] = system: P. aeruginosa strain 253-43-C; test: MIC by broth microdilution (CLSI); type: cell-based, Pseudomonas aeruginosa
Protocol: as §1, §2

[6] = system: Vancomycin-resistant Enterococci (VRE) clinical isolate RBWH1; test: MIC by broth microdilution (CLSI); type: cell-based, Enterococcus
Protocol: as §3, §4, §5

How did the MIC (A. baumannii strain 42-A) turn out when colistin was run?
Its MIC is greater than 64 mg/L.

What about the MIC ([1]; MRSA USA300, CQ: 1 μM, Zinc: 32 μM) of the same substance?
Its MIC is 2 mg/L.

What about the MIC ([1]; MRSA USA300, PBT2: 2 μM, Zinc: 50 μM) of the same substance?
The MIC was 2 mg/L.

What about the antibiotic resensitization ([1]; MRSA USA 300, RA-HQ-12+zinc(II) ions (ZnSO4)) of the same substance?
Its antibiotic resensitization is “resensitize”.

And the “antibiotic sensitivity of resistant strain” value (“antibiotic sensitivity” for short) ([1]; MRSA USA300, addition of sub-inhibitory PBT2+zinc(II) ions)?
The value was “became sensitive”.

And the MIC ([1]; MRSA, RA-HQ-12: 3.5 μM, Zn: […], oxacillin with 2% NaCl)?
The MIC was 8 mg/L.

What about the MIC ([1]; MRSA, RA-HQ-12: 3.5 μM, oxacillin with 2% NaCl) of the same substance?
The MIC was 64 mg/L.

What about the antibiotic resensitization ([2]; GAS HKU16, RA-HQ-12+zinc(II) ions (ZnSO4)) of the same substance?
The antibiotic resensitization was “resensitize”.

What about the “antibiotic sensitivity” value ([2]; GAS HKU16, addition of sub-inhibitory PBT2+zinc(II) ions) of the same substance?
The value was “became sensitive”.

What about the MIC ([2]; GAS, RA-HQ-12: 3.5 μM, Zn: […]) of the same substance?
The MIC was 2-4^# μg/mL.

What about the MIC ([2]; Streptococcus pyogenes HKU16, CQ: 6 μM) of the same substance?
The MIC was 64 µg/mL.

What about the MIC ([2]; Streptococcus pyogenes HKU16, CQ: 6 μM, Zinc: 80 μM) of the same substance?
Its MIC is 1 µg/mL.

What about the MIC ([2]; Streptococcus pyogenes HKU16, PBT2: 4.75 μM) of the same substance?
The MIC was 32 µg/mL.

And the MIC ([2]; Streptococcus pyogenes HKU16, PBT2: 4.75 μM, Zinc: […])?
The MIC was 0.5-1^ μg/mL.

And the MIC ([3]; K. pneumoniae, RA-HQ-12: 0 μM, Zn: 0 μM)?
The MIC was 64 µg/mL.

And the MIC ([3]; K. pneumoniae, RA-HQ-12: 16 μM)?
Its MIC is 32 µg/mL.

What about the MIC ([3]; K. pneumoniae, RA-HQ-12: 16 μM, Zn: 64 μM) of the same substance?
Its MIC is 4^# μg/mL.

And the MIC ([3]; K. pneumoniae, Zn: 64 μM)?
Its MIC is 64 µg/mL.

And the antibiotic resensitization ([3]; Klebsiella pneumoniae MS6771, RA-HQ-12+zinc(II) ions (ZnSO4))?
The antibiotic resensitization was “resensitize”.

What about the “antibiotic sensitivity” value ([3]; Klebsiella pneumoniae MS6771, addition of sub-inhibitory PBT2+zinc(II) ions) of the same substance?
Its value is “became sensitive”.

And the “antibiotic sensitivity” value ([3]; Klebsiella pneumoniae MS6771, combination with PBT2, no zinc)?
Its value is “resulted in sensitivity”.

What about the MIC ([3]; Klebsiella pneumoniae, CQ: 0 μM, Zinc: 0 μM) of the same substance?
The MIC was 64 µg/mL.

What about the MIC ([3]; Klebsiella pneumoniae, CQ: 64 μM) of the same substance?
The MIC was 0.5 µg/mL.

What about the MIC ([3]; Klebsiella pneumoniae, CQ: 64 μM, Zinc: 256 μM) of the same substance?
The MIC was 0.5 µg/mL.

And the MIC ([3]; Klebsiella pneumoniae, PBT2: 0 μM, Zinc: 0 μM)?
The MIC was 32 to 64 µg/mL.

And the MIC ([3]; Klebsiella pneumoniae, Zinc: 256 μM (CQ panel))?
Its MIC is 32 to 64 µg/mL.

And the MIC ([3]; Klebsiella pneumoniae, Zinc: 256 μM (PBT2 panel))?
Its MIC is 32 to 64 µg/mL.

And the “antibiotic sensitivity” value ([4]; addition of sub-inhibitory PBT2+zinc(II) ions)?
Its value is “became sensitive”.

What about the “antibiotic sensitivity” value ([4]; combination with PBT2, no zinc) of the same substance?
Its value is “resulted in sensitivity”.

And the MIC ([4]; CQ: 0 μM, Zinc: 0 μM)?
The MIC was 8 mg/L.

What about the MIC ([4]; CQ: 5 μM) of the same substance?
Its MIC is 2 mg/L.

What about the MIC ([4]; CQ: 5 μM, Zinc: 25 μM) of the same substance?
Its MIC is 0.5 to 1 mg/L.

What about the MIC ([4]; PBT2: 0 μM, Zinc: 0 μM) of the same substance?
The MIC was 8 mg/L.

What about the MIC ([4]; PBT2: 7 μM) of the same substance?
Its MIC is 1 mg/L.

What about the MIC ([4]; PBT2: 7 μM, Zinc: 200 μM) of the same substance?
Its MIC is 0.25 mg/L.

And the MIC ([4]; Zinc: 25 μM)?
The MIC was 8 mg/L.

What about the MIC ([4]; Zinc: 200 μM) of the same substance?
The MIC was 8 mg/L.

What about the MIC ([5]; PBT2) of the same substance?
Its MIC is 1 mg/L.

What about the MIC ([5]; Untreated) of the same substance?
The MIC was 8 mg/L.

And the MIC ([6]; VRE RBWH1, CQ: 2.5 μM, Zinc: 32 μM)?
The MIC was 0.5 to 1 µg/mL.

What about the MIC ([6]; VRE RBWH1, PBT2: 1.75 μM, Zinc: […]) of the same substance?
The MIC was 0.5 µg/mL.

What about the antibiotic resensitization ([6]; VRE RBWH1, RA-HQ-12+zinc(II) ions (ZnSO4)) of the same substance?
Its antibiotic resensitization is “resensitize”.

What about the “antibiotic sensitivity” value ([6]; VRE RBWH1, addition of sub-inhibitory PBT2+zinc(II) ions) of the same substance?
Its value is “became sensitive”.

What about the MIC ([6]; VRE, RA-HQ-12: 3.5 μM) of the same substance?
Its MIC is 32 µg/mL.

What about the MIC ([6]; VRE, RA-HQ-12: 3.5 μM, Zn: […]) of the same substance?
Its MIC is 2-4^# μg/mL.
